# Values of other authors as cited in PMC10323144, “Garbage in, garbage out: how reliable training data improved a virtual screening approach against SARS-CoV-2 MPro” (Frontiers in Pharmacology, 2023).
# Tested on: MPro
# Conditions: compiled from peer-reviewed sources (287 compounds) ref the 18 original articles; cited from earlier work
row,Compound,Class (MPro activity class)
1,CC(C)CC(NC(=O)OCc1ccccc1)C(=O)NC(CC(C)C)C(=O)NC(CC1CCNC1=O)C(=O)C(=O)NC1CC1 (centres unmarked) [UAWJ248],1 (Compounds with IC50 < 10 µM or with a percentage of enzyme inhibition >50% at 10 µM were labelled as ACTIVE)
2,CCCC(NC(=O)C(CC(C)C)NC(=O)OCc1ccccc1)C(=O)C(=O)NCc1ccccc1 (centres unmarked) [UAWJ257],"0 (compounds with IC50 > 20 μM, percentage inhibition <80% at 20 µM or 50 μM, or percentage enzyme inhibition <50% at 10 µM were labelled as INACTIVE)"
3,CCOC(=O)c1c(CSc2ccccc2)n(C)c2cc(Br)c(O)c(CN(C)C)c12 [Umifenovir],"0 (compounds with IC50 > 20 μM, percentage inhibition <80% at 20 µM or 50 μM, or percentage enzyme inhibition <50% at 10 µM were labelled as INACTIVE)"
4,Cc1cc(Cn2nnc3c(-c4ccco4)nc(N)nc32)ccc1N [VIPADENANT],"0 (compounds with IC50 > 20 μM, percentage inhibition <80% at 20 µM or 50 μM, or percentage enzyme inhibition <50% at 10 µM were labelled as INACTIVE)"
5,CCn1c(=O)c(-c2cc[nH]n2)cc2c(C)nc(N)nc21 [VOXTALISIB],"0 (compounds with IC50 > 20 μM, percentage inhibition <80% at 20 µM or 50 μM, or percentage enzyme inhibition <50% at 10 µM were labelled as INACTIVE)"
6,C[C@H](NC(=O)/C(C#N)=C/c1cccc(Br)n1)c1ccccc1 [WP1066],"0 (compounds with IC50 > 20 μM, percentage inhibition <80% at 20 µM or 50 μM, or percentage enzyme inhibition <50% at 10 µM were labelled as INACTIVE)"
7,COc1c(O)cc(O)c2c(=O)cc(-c3ccccc3)oc12 [Wogonin],"0 (compounds with IC50 > 20 μM, percentage inhibition <80% at 20 µM or 50 μM, or percentage enzyme inhibition <50% at 10 µM were labelled as INACTIVE)"
8,COc1c(O[C@@H]2O[C@H](C(=O)O)[C@@H](O)[C@H](O)[C@H]2O)cc(O)c2c(=O)cc(-c3ccccc3)oc12 [Wogonoside],"0 (compounds with IC50 > 20 μM, percentage inhibition <80% at 20 µM or 50 μM, or percentage enzyme inhibition <50% at 10 µM were labelled as INACTIVE)"
9,CC(NC(=O)C(Cc1ccccc1)NC(=O)OCc1ccccc1)C(=O)CF (centres unmarked) [Z-FA-FMK],"0 (compounds with IC50 > 20 μM, percentage inhibition <80% at 20 µM or 50 μM, or percentage enzyme inhibition <50% at 10 µM were labelled as INACTIVE)"
10,CC(C)C[C@H](NC(=O)[C@H](Cc1ccccc1)NC(=O)c1cnccn1)B(O)O [bortezomib],"0 (compounds with IC50 > 20 μM, percentage inhibition <80% at 20 µM or 50 μM, or percentage enzyme inhibition <50% at 10 µM were labelled as INACTIVE)"
11,CC(C)C[C@H](NC(=O)[C@H](CCc1ccccc1)NC(=O)CN1CCOCC1)C(=O)N[C@@H](Cc1ccccc1)C(=O)N[C@@H](CC(C)C)C(=O)[C@@]1(C)CO1 [carfilzomib],"0 (compounds with IC50 > 20 μM, percentage inhibition <80% at 20 µM or 50 μM, or percentage enzyme inhibition <50% at 10 µM were labelled as INACTIVE)"
12,CC(C)c1nc(CN(C)C(=O)N[C@@H](CCN2CCOCC2)C(=O)N[C@H](CC[C@H](Cc2ccccc2)NC(=O)OCc2cncs2)Cc2ccccc2)cs1 [cobicistat],1 (Compounds with IC50 < 10 µM or with a percentage of enzyme inhibition >50% at 10 µM were labelled as ACTIVE)
13,N#Cc1ccccc1-c1cc(-c2cccc(Cl)c2)c(=O)n(-c2cccnc2)c1 [compound 2],1 (Compounds with IC50 < 10 µM or with a percentage of enzyme inhibition >50% at 10 µM were labelled as ACTIVE)
14,N#Cc1ccccc1-c1cc(-c2cc(Cl)cc(Cl)c2)c(=O)n(-c2cccnc2)c1 [compound 4],1 (Compounds with IC50 < 10 µM or with a percentage of enzyme inhibition >50% at 10 µM were labelled as ACTIVE)
15,COCCOc1cc(Cl)cc(-c2cc(-c3ccccc3C#N)cn(-c3cccnc3)c2=O)c1 [compound 6],1 (Compounds with IC50 < 10 µM or with a percentage of enzyme inhibition >50% at 10 µM were labelled as ACTIVE)
16,N#Cc1ccccc1-c1cc(-c2cc(Cl)cc(OCc3ccccc3)c2)c(=O)n(-c2cccnc2)c1 [compound 7],1 (Compounds with IC50 < 10 µM or with a percentage of enzyme inhibition >50% at 10 µM were labelled as ACTIVE)
17,N#Cc1ccccc1-c1cc(-c2cc(Cl)cc(OCCc3ccccc3)c2)c(=O)n(-c2cccnc2)c1 [compound 8],1 (Compounds with IC50 < 10 µM or with a percentage of enzyme inhibition >50% at 10 µM were labelled as ACTIVE)
18,CCCOc1cc(Cl)cc(-c2cc(-c3ccccc3C#N)cn(-c3cncnc3)c2=O)c1 [compound 9],1 (Compounds with IC50 < 10 µM or with a percentage of enzyme inhibition >50% at 10 µM were labelled as ACTIVE)
19,COc1cc(Cl)cc(-c2cc(-c3c[nH]c(=O)[nH]c3=O)cn(-c3cccnc3)c2=O)c1 [compound 10],1 (Compounds with IC50 < 10 µM or with a percentage of enzyme inhibition >50% at 10 µM were labelled as ACTIVE)
20,CCCOc1cc(Cl)cc(-c2cc(-c3c[nH]c(=O)[nH]c3=O)cn(-c3cccnc3)c2=O)c1 [compound 11],1 (Compounds with IC50 < 10 µM or with a percentage of enzyme inhibition >50% at 10 µM were labelled as ACTIVE)
21,O=C(C=Cc1ccccc1)NC(CC1CCCCC1)C(=O)NC(CC1CCNC1=O)C(=O)C(=O)NCc1ccccc1 (centres unmarked) [compound 11r],1 (Compounds with IC50 < 10 µM or with a percentage of enzyme inhibition >50% at 10 µM were labelled as ACTIVE)

row,Compound,Class (MPro activity class)
1,CCCCOc1cc(Cl)cc(-c2cc(-c3c[nH]c(=O)[nH]c3=O)cn(-c3cccnc3)c2=O)c1 [compound 12],1 (Compounds with IC50 < 10 µM or with a percentage of enzyme inhibition >50% at 10 µM were labelled as ACTIVE)
2,CCCCCOc1cc(Cl)cc(-c2cc(-c3c[nH]c(=O)[nH]c3=O)cn(-c3cccnc3)c2=O)c1 [compound 13],1 (Compounds with IC50 < 10 µM or with a percentage of enzyme inhibition >50% at 10 µM were labelled as ACTIVE)
3,CC(C)(C)OC(=O)Nc1cccn(C(CC2CC2)C(=O)NC(CC2CCNC2=O)C(=O)C(=O)NC2CC2)c1=O (centres unmarked) [compound 13b],1 (Compounds with IC50 < 10 µM or with a percentage of enzyme inhibition >50% at 10 µM were labelled as ACTIVE)
4,O=c1[nH]cc(-c2cc(-c3cc(Cl)cc(OCc4ccccc4)c3)c(=O)n(-c3cccnc3)c2)c(=O)[nH]1 [compound 14],1 (Compounds with IC50 < 10 µM or with a percentage of enzyme inhibition >50% at 10 µM were labelled as ACTIVE)
5,O=c1[nH]cc(-c2cc(-c3cc(Cl)cc(OCCc4ccccc4)c3)c(=O)n(-c3cccnc3)c2)c(=O)[nH]1 [compound 15],1 (Compounds with IC50 < 10 µM or with a percentage of enzyme inhibition >50% at 10 µM were labelled as ACTIVE)
6,Cc1ccccc1COc1cc(Cl)cc(-c2cc(-c3c[nH]c(=O)[nH]c3=O)cn(-c3cccnc3)c2=O)c1 [compound 16],1 (Compounds with IC50 < 10 µM or with a percentage of enzyme inhibition >50% at 10 µM were labelled as ACTIVE)
7,Cc1cccc(COc2cc(Cl)cc(-c3cc(-c4c[nH]c(=O)[nH]c4=O)cn(-c4cccnc4)c3=O)c2)c1 [compound 17],1 (Compounds with IC50 < 10 µM or with a percentage of enzyme inhibition >50% at 10 µM were labelled as ACTIVE)
8,O=c1[nH]cc(-c2cc(-c3cc(Cl)cc(OCc4ccccc4F)c3)c(=O)n(-c3cccnc3)c2)c(=O)[nH]1 [compound 18],1 (Compounds with IC50 < 10 µM or with a percentage of enzyme inhibition >50% at 10 µM were labelled as ACTIVE)
9,O=c1[nH]cc(-c2cc(-c3cc(Cl)cc(OCc4cccc(F)c4)c3)c(=O)n(-c3cccnc3)c2)c(=O)[nH]1 [compound 19],1 (Compounds with IC50 < 10 µM or with a percentage of enzyme inhibition >50% at 10 µM were labelled as ACTIVE)
10,O=c1[nH]cc(-c2cc(-c3cc(Cl)cc(OCc4c(F)cccc4F)c3)c(=O)n(-c3cccnc3)c2)c(=O)[nH]1 [compound 20],1 (Compounds with IC50 < 10 µM or with a percentage of enzyme inhibition >50% at 10 µM were labelled as ACTIVE)
11,O=c1[nH]cc(-c2cc(-c3cc(Cl)cc(OCc4ccccc4Cl)c3)c(=O)n(-c3cccnc3)c2)c(=O)[nH]1 [compound 21],1 (Compounds with IC50 < 10 µM or with a percentage of enzyme inhibition >50% at 10 µM were labelled as ACTIVE)
12,O=c1[nH]cc(-c2cc(-c3cc(Cl)cc(OCc4ccc(F)cc4Cl)c3)c(=O)n(-c3cccnc3)c2)c(=O)[nH]1 [compound 22],1 (Compounds with IC50 < 10 µM or with a percentage of enzyme inhibition >50% at 10 µM were labelled as ACTIVE)
13,CC(C)C[C@H](NC(=O)[C@@H](NC(=O)c1cccc(-c2ccccc2)n1)[C@@H](C)O)B(O)O [delanzomib],"0 (compounds with IC50 > 20 μM, percentage inhibition <80% at 20 µM or 50 μM, or percentage enzyme inhibition <50% at 10 µM were labelled as INACTIVE)"
14,"Nc1ccn([C@H]2C[C@H](O)[C@@H](COP(=O)(O)OP(=O)(O)OP(=O)(O)OP(=O)(O)OC[C@H]3O[C@@H](n4ccc(=O)[nH]c4=O)[C@H](O)[C@@H]3O)O2)c(=O)n1 [denufosol (DB04983), denufosol]","0 (compounds with IC50 > 20 μM, percentage inhibition <80% at 20 µM or 50 μM, or percentage enzyme inhibition <50% at 10 µM were labelled as INACTIVE)"
15,C=C(CC)C(=O)c1ccc(OCC(=O)O)c(Cl)c1Cl [ethacrynic acid],"0 (compounds with IC50 > 20 μM, percentage inhibition <80% at 20 µM or 50 μM, or percentage enzyme inhibition <50% at 10 µM were labelled as INACTIVE)"
16,C[C@H]1C[C@@H]2[C@H]([C@@H](O)C[C@@]3(C)[C@H]2CC[C@]3(O)C(=O)CO)[C@@]2(C)C=CC(=O)C=C12 [methylprednisolone],"0 (compounds with IC50 > 20 μM, percentage inhibition <80% at 20 µM or 50 μM, or percentage enzyme inhibition <50% at 10 µM were labelled as INACTIVE)"
17,Carmofur,1 (Compounds with IC50 < 10 µM or with a percentage of enzyme inhibition >50% at 10 µM were labelled as ACTIVE)
18,Disulfiram,1 (Compounds with IC50 < 10 µM or with a percentage of enzyme inhibition >50% at 10 µM were labelled as ACTIVE)
19,Forsythoside B,1 (Compounds with IC50 < 10 µM or with a percentage of enzyme inhibition >50% at 10 µM were labelled as ACTIVE)
20,MLN9708,"0 (compounds with IC50 > 20 μM, percentage inhibition <80% at 20 µM or 50 μM, or percentage enzyme inhibition <50% at 10 µM were labelled as INACTIVE)"
